Where a name gives a salt, the structure may show the parent alone.
Test system: ultraviolet erythema in guinea pigs
Assay: Erythema blocking assay (anti-inflammatory activity, ultraviolet erythema, oral)
Type: in vivo, Albino guinea pigs
Settings: Cavia porcellus, po, read-out: Erythema Blocking Assay Oral ED50
Experimental: Various compounds within the scope of this invention were tested for anti-inflammatory activity in an erythema blocking assay which involved the following test procedure.
A modification of the Winder et al. (1958) method [Winder, C. V., Wax, J., Burr, V. and Posiere, C. E.: "A Study of Pharmacological Influences on Ultraviolet Erythema in Guinea Pigs", Arch. Int. Pharmacodyn., 116, 261, 1958] was used to measure anti-inflammatory activity of these compounds. Albino guinea pigs of either sex weighing 225-300 grams were shaved on the back and chemically (NAIR®, Lotion Hair Remover, Carter Products, N. Y., N. Y.) depitated, 18-20 hours before exposure to ultraviolet light. The animals were fasted overnight. Immediately after the guinea pigs were treated with a test compound, gummed notebook paper reinforcements were placed on their backs, and they were exposed to a high intensity ultraviolet light for seven seconds. The ultraviolet light source was a Hanovia Lamp (Kromayer-Model 10) which was placed in contact with the skin of the guinea pig's back. After exposure, the reinforcements were removed and their backs wiped clean with a water soaked gauze sponge. The unexposed area under the reinforcements provided an area of contrast for grading the erythema. The animals were randomized and placed in clear plastic partitioned holders 10 × 20 cm. wide and 15 cm. high. Beginning one hour after exposure and thereafter at half-hour intervals for another one and one-half hours, the degree of resulting erythema was graded by an arbitrary scoring system based upon the degree of contrast and redness formed. Anti-inflammatory agents delay the development of the erythema and therefore have their greatest effect at the initial grading periods. Therefore, the scores were weighed by a factor of 4, 3, 2, and 1 at the 1.0-, 1.5-, 2.0-, and 2.5-hour scoring times, respectively. The erythema was graded as follows:
Score Appearance of Exposed Area
______________________________________
0 No redness and no contrast
1 Slight redness with a faint reinforcement outline
2 Slight to moderate redness with a distinct outline
3 Marked redness with a distinct circular outline
Total scores from each treatment group of five or six guinea pigs were compared to the control treatment and the percent inhibition calculated as follows:
100 × Control - Treatment/Control = Percent Inhibition
Test compounds were prepared in a suspension of 1 percent methylcellulose in water and administered orally. Guinea pigs were treated orally with 1.0 cc./kg. of the suspensions. Control animals received 1.0 cc./kg. of a 1 percent methylcellulose suspension. The dose that produces a 50 percent inhibition of the erythemic response (ED50) was calculated. The ED50 results in (mg./kg.) are recorded in the following table: […]

SMILES | ED50 [mg/kg]
CC(=O)Oc1ccccc1C(=O)O [A.S.A., reference compound] | 50
CN(C)CCc1cccc(Oc2ccccc2)c1.Cl [N,N-Dimethyl-2-(3-phenoxyphenyl)ethylamine hydrochloride] | 7
CNCCc1cccc(Oc2ccccc2)c1.Cl [N-Methyl-2-(3-phenoxyphenyl)ethylamine hydrochloride] | 10

Same assay, conditions: Cavia porcellus; oral, guinea pigs, 50 percent inhibition of erythemic response; single dose in 1 percent methylcellulose, scored 1.0-2.5 hours; read-out: Erythema Blocking Assay Oral ED50

SMILES | ED50 [mg/kg]
CC(C(=O)NO)c1cccc(Oc2ccccc2)c1 (stereo not drawn) | 2
CC(CNC1CC1)c1cccc(Oc2ccccc2)c1 (stereo not drawn) [drawing 20] | 9
CC(C(=O)N(C)C)c1cccc(Oc2ccccc2)c1 (stereo not drawn) | 25
CCC(=O)OCC(C)c1cccc(Oc2ccccc2)c1 (stereo not drawn) | 10
CNC(=O)OCC(C)c1cccc(Oc2ccccc2)c1 (stereo not drawn) | 40
CC(CN(C)CC1CC1)c1cccc(Oc2ccccc2)c1 (stereo not drawn) [drawing 23] | 3
CC(c1cccc(Oc2ccccc2)c1)c1nnn[nH]1 (stereo not drawn) [drawing 36] | 10
CC(=O)OCC(C)c1cccc(Oc2ccccc2)c1 (stereo not drawn) | 8
CC(CCN)c1cccc(Oc2ccccc2)c1 (stereo not drawn) [drawing 29] | 2
CNCC(C)c1cccc(Oc2ccccc2)c1 (stereo not drawn) [drawing 18] | 1
CC(CN(C)CCc1ccccc1)c1cccc(Oc2ccccc2)c1 (stereo not drawn) [drawing 28] | 5
CC(CO)c1cccc(Oc2ccccc2)c1 (stereo not drawn) | 2
C=CCNCC(C)c1cccc(Oc2ccccc2)c1 (stereo not drawn) [drawing 24] | 10
CNCCC(C)c1cccc(Oc2ccccc2)c1 (stereo not drawn) [drawing 30] | 5
CC(C(N)=O)c1cccc(Oc2ccccc2)c1 (stereo not drawn) | 3
CC(CN(C)C)c1cccc(Oc2ccccc2)c1 (stereo not drawn) [drawing 19] | 8
CC(CN(C)C1CC1)c1cccc(Oc2ccccc2)c1 (stereo not drawn) [drawing 22] | 3
CC(CNCCc1ccccc1)c1cccc(Oc2ccccc2)c1 (stereo not drawn) | 15
C=CCN(C)CC(C)c1cccc(Oc2ccccc2)c1 (stereo not drawn) [drawing 25] | 3
CC(C(=O)NCC(=O)O)c1cccc(Oc2ccccc2)c1 (stereo not drawn) | 5
NCCc1cccc(Oc2ccccc2)c1 [CH2 CH2 NH2 . HCl] | 75
CNC(=O)C(C)c1cccc(Oc2ccccc2)c1 (stereo not drawn) | 30
CC(CN)c1cccc(Oc2ccccc2)c1 (stereo not drawn) [drawing 17] | 1
CC(C)=CCN(C)CC(C)c1cccc(Oc2ccccc2)c1 (stereo not drawn) [drawing 26] | 5
CC(CNCC1CC1)c1cccc(Oc2ccccc2)c1 (stereo not drawn) | 20

Test system: acetic acid-induced writhing in mice
Assay: Analgesic writhing test (inhibition of acetic acid-induced writhing)
Type: in vivo, Standard strain albino male mice
Settings: Mus musculus, sc, read-out: Analgesic Writhing Test Subcutaneous ED50
Experimental: A method similar to that reported by Koster, R., et al., "Acetic Acid for Analgesic Screening" Fed.
Standard strain albino male mice, weighing 16-18 grams, were administered the treatments either subcutaneously or by gastric lavage. At various times after treatment, writhing was induced by the intraperitoneal administration of 60 mg./kg. of acetic acid (0.6 percent). Each treatment group consisted of 6 mice. The total number of writhes for the treatment group were counted in a 10-minute observation period starting 5 minutes after the acetic acid administration. The treatment totals were compared to controls and a percent inhibition calculated as follows:
Percent Inhibition = 100 - (Treatment total/Control Total × 100)
The ED50 values in the table which follows represents the doses in mg. of compound/kg. of body weight which will produce a 50 percent inhibition of the frequency of writhing.

SMILES | ED50 [mg/kg]
CC(=O)Oc1ccccc1C(=O)O [A.S.A., reference compound] | 20
CNCCc1cccc(Oc2ccccc2)c1.Cl [N-Methyl-2-(3-phenoxyphenyl)ethylamine hydrochloride] | 25
NCCc1cccc(Oc2ccccc2)c1 [CH2 CH2 NH2 . HCl] | 4
CN(C)CCc1cccc(Oc2ccccc2)c1 [drawing 41] | 35

Same assay, conditions: Mus musculus, sc; subcutaneous, mice, 50 percent inhibition of frequency of writhing; 60 mg./kg. acetic acid intraperitoneal; read-out: Analgesic Writhing Test Subcutaneous ED50

SMILES | ED50 [mg/kg]
CC(CN(C)C)c1cccc(Oc2ccccc2)c1 (stereo not drawn) [drawing 44] | 10
CC(CN(C)CC1CC1)c1cccc(Oc2ccccc2)c1 (stereo not drawn) [drawing 46] | < 50
CC(CN)c1cccc(Oc2ccccc2)c1 (stereo not drawn) [drawing 42] | 20
CCC(CNC)c1cccc(Oc2ccccc2)c1 (stereo not drawn) | 20
CNCC(C)c1cccc(Oc2ccccc2)c1 (stereo not drawn) [drawing 43] | 20

Test system: not listed separately
Assay: pK'a determination
Type: physicochemical
Settings: not given

pKa | SMILES
7.7 | CC(CN(C)CCc1ccccc1)c1cccc(Oc2ccccc2)c1 (stereo not drawn) [N-Methyl-N-(2-phenylethyl)-2-(3-phenoxyphenyl)propylamine hydrochloride]
10 | CNCCC(C)c1cccc(Oc2ccccc2)c1 (stereo not drawn) [N-Methyl-3-(3-phenoxyphenyl)butylamine hydrochloride]
7.3 | CC(C(=O)O)c1cccc(Oc2ccccc2)c1 (stereo not drawn) [2-(3-phenoxyphenyl)propionic acid]
6.9 | O=C(O)Cc1cccc(Oc2ccccc2)c1 [2-(3-phenoxyphenyl)acetic acid]
7.6 | C=CCN(C)CC(C)c1cccc(Oc2ccccc2)c1 (stereo not drawn) [N-Methyl-N-allyl-2-(3-phenoxyphenyl)propylamine hydrochloride]
10 | CC(CCN)c1cccc(Oc2ccccc2)c1 (stereo not drawn) [3-(3-Phenoxyphenyl)butylamine hydrochloride]
8.3 | CC(CN(C)CC1CC1)c1cccc(Oc2ccccc2)c1 (stereo not drawn) [N-Methyl-N-cyclopropylmethyl-2-(3-phenoxyphenyl)propylamine hydrochloride]
7.9 | CC(CNC1CC1)c1cccc(Oc2ccccc2)c1 (stereo not drawn) [N-Cyclopropyl-2-(3-phenoxyphenyl)propylamine hydrochloride]
6.9 | CC(CN(C)C1CC1)c1cccc(Oc2ccccc2)c1 (stereo not drawn) [N-Methyl-N-cyclopropyl-2-(3-phenoxyphenyl)propylamine hydrochloride]
8.5 | C=CCNCC(C)c1cccc(Oc2ccccc2)c1 (stereo not drawn) [N-Allyl-2-(3-phenoxyphenyl)propylamine hydrochloride]
5.8 | CC(c1cccc(Oc2ccccc2)c1)c1nnn[nH]1 (stereo not drawn) [5-(α-Methyl-3-phenoxybenzyl)-1H-tetrazole]

SMILES | pKa
CC(C)=CCN(C)CC(C)c1cccc(Oc2ccccc2)c1 (stereo not drawn) [N-Methyl-N-(3-methylbut-2-enyl)-2-(3-phenoxyphenyl)propylamine hydrochloride] | 8.5
CN(C)CCc1cccc(Oc2ccccc2)c1.Cl [N,N-Dimethyl-2-(3-phenoxyphenyl)ethylamine hydrochloride] | 8.5
CNCCc1cccc(Oc2ccccc2)c1.Cl [N-Methyl-2-(3-phenoxyphenyl)ethylamine hydrochloride] | 9.7

— patent US4145557A, “(Phenoxyphenyl) alkyl acetates, propionates, and carbamates” (Eli Lilly and Company, priority 1977, dated 1979)
